This passage reports GI50 and TGI results from PubChem BioAssay (NCI).

SMILES strings stand for the structures.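 All cell lines were grown in 96-well plates and treated with compound for 48 hours. GI50 = concentration required for 50% inhibition of growth. TGI is the concentration that stops growth completely.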

Test systems include UACC-257 melanoma; RXF 393 renal; M14 melanoma; CCRF-CEM leukemia; NCI-H23 lung; NCI-H522 lung; SW-620 colon; MALME-3M melanoma; OVCAR-4 ovarian; NCI-H226 lung.
Common to all, as to experiment: NCI-60 cell line screen, 48 h

Regarding `COC(=O)c1ccc(CN2C(=O)C(Cl)=C(Nc3ccc(OC)c(Cl)c3)C2=O)cc1`, the GI50 with UACC-257 melanoma is 19.4 µM; with RXF 393 renal it was 11.2 µM; in the assay with M14 melanoma it was 32.6 µM; in the assay on CCRF-CEM leukemia, above 50 µM; in the assay with NCI-H23 lung, 14.4 µM; in the assay with NCI-H522 lung it was 3.84 µM. Further, the GI50 with SW-620 colon is above 50 µM. Moreover, the TGI in the assay with UACC-257 melanoma was above 50 µM; with RXF 393 renal it was 26.1 µM; in the assay with M14 melanoma it was above 50 µM; with CCRF-CEM leukemia, above 50 µM; in the assay on NCI-H23 lung, 39.3 µM; in the assay with NCI-H522 lung, 21.5 µM. The compound also had a TGI with SW-620 colon above 50 µM.
Consider `CCCCCCCCCCCCCCCCCCNC(=O)OCC(CNS(=O)(=O)CCC[n+]1cccc2ccccc21)COC` (stereo not drawn), for which the TGI with UACC-257 melanoma was determined as 8.24 µM; in the assay on MALME-3M melanoma it was 18.7 µM; in the assay on RXF 393 renal, 55.8 µM; in the assay with OVCAR-4 ovarian it was 7.01 µM; in the assay with M14 melanoma it was 25.9 µM; with NCI-H23 lung it was 5.6 µM. Also, the TGI is 11.8 µM with SW-620 colon and 3.84 µM in the assay on NCI-H226 lung.
As to `C/C=C(/C)c1cnc(CC(C)C)c(=O)[nH]1`, the TGI in the assay on UACC-257 melanoma, in the assay on RXF 393 renal, in the assay on OVCAR-4 ovarian, in the assay on CCRF-CEM leukemia, in the assay on NCI-H23 lung and in the assay on SW-620 colon was above 100 µM in each case.
In the case of `COc1nc(C)cc2c(=O)n(-c3ccccc3)n(CC(O)CN3CCN(c4ccc(Cl)cc4)CC3)c(=O)c12` (stereo not drawn), the GI50 in the assay on MALME-3M melanoma is above 50 µM; in the assay on OVCAR-4 ovarian it was 36.8 µM; in the assay with M14 melanoma, above 50 µM; with CCRF-CEM leukemia, above 50 µM; with NCI-H23 lung it was above 50 µM; in the assay on NCI-H522 lung it was 25.8 µM. Besides, the GI50 in the assay on SW-620 colon and in the assay with NCI-H226 lung was above 50 µM throughout. Also, the TGI with MALME-3M melanoma, in the assay on OVCAR-4 ovarian, in the assay on M14 melanoma, in the assay on CCRF-CEM leukemia, in the assay with NCI-H23 lung and with NCI-H522 lung was above 50 µM each time. The TGI with SW-620 colon and in the assay with NCI-H226 lung was above 50 µM throughout.
With `CC1(C)C(=O)C=CC2(C)C1CC(O)C1(C)C2CCC2(C)C(c3ccoc3)OC(=O)C3OC321` (stereo not drawn), the TGI with RXF 393 renal is 33.6 µM; in the assay on OVCAR-4 ovarian, 38.4 µM; in the assay on M14 melanoma, above 100 µM; with CCRF-CEM leukemia, 57.5 µM; in the assay with NCI-H23 lung, 28.6 µM; with NCI-H522 lung, 27.1 µM. The TGI with SW-620 colon was found to be 59.9 µM; in the assay with NCI-H226 lung, 33.3 µM.
Consider `CC1(O)CCC2(C)C(=O)C1(C)CCC21OCCO1` (stereo not drawn), for which the TGI in the assay with UACC-257 melanoma, in the assay with MALME-3M melanoma, with RXF 393 renal, in the assay on M14 melanoma, with CCRF-CEM leukemia and with NCI-H23 lung was above 100 µM throughout. The TGI in the assay on NCI-H522 lung, in the assay with SW-620 colon and with NCI-H226 lung was above 100 µM throughout.
On to `O=C1CCN2CCC(=O)c3c2c(cc2ccccc32)N1`, for which the TGI in the assay with UACC-257 melanoma, in the assay with MALME-3M melanoma, in the assay on RXF 393 renal, in the assay with M14 melanoma, with CCRF-CEM leukemia and in the assay with NCI-H522 lung was above 100 µM throughout. Besides, the TGI in the assay on SW-620 colon and with NCI-H226 lung was above 100 µM each time.
Consider `COc1c(Sc2ccccc2)cc(Sc2ccccc2)c2cccnc12`, for which the TGI was 41.1 µM in the assay with UACC-257 melanoma; 44.1 µM with MALME-3M melanoma; 51.5 µM in the assay on RXF 393 renal; 61.9 µM in the assay on OVCAR-4 ovarian; above 100 µM with M14 melanoma; 54.5 µM in the assay on CCRF-CEM leukemia. In addition, the TGI is 62.1 µM in the assay with NCI-H23 lung and above 100 µM in the assay on SW-620 colon.
With `CCN(CC)CCOc1c(OC)c(Br)cc2c(C)c(C(=O)OC)oc12`, the GI50 was 1.53 µM with UACC-257 melanoma; 4.17 µM in the assay on RXF 393 renal; 1.18 µM in the assay with M14 melanoma; 0.154 µM with CCRF-CEM leukemia; 1.12 µM with NCI-H23 lung; 1.32 µM in the assay on NCI-H522 lung. The GI50 is 0.802 µM in the assay on SW-620 colon and 1.16 µM with NCI-H226 lung. The TGI in the assay with UACC-257 melanoma stood at 4.29 µM; in the assay with RXF 393 renal, 13 µM; in the assay with M14 melanoma it was 4.4 µM; in the assay with CCRF-CEM leukemia, 0.72 µM; in the assay with NCI-H23 lung, 2.68 µM; with NCI-H522 lung, 11.9 µM. Also, the figures for the TGI with SW-620 colon and in the assay with NCI-H226 lung were 2.04 µM and 3.39 µM, respectively.
With `CN1c2ccccc2S(=O)(=O)n2c(CCc3ccccc3)nnc21`, the TGI in the assay with UACC-257 melanoma, in the assay on RXF 393 renal, in the assay with OVCAR-4 ovarian, with M14 melanoma, with CCRF-CEM leukemia and in the assay with NCI-H23 lung was above 100 µM in each case. Also, the TGI in the assay on NCI-H522 lung, with SW-620 colon and with NCI-H226 lung was above 100 µM in each case.
On to `COC(=O)C(CC(=O)c1c[nH]c2ccccc12)c1c[nH]c2ccccc12` (stereo not drawn), for which the TGI in the assay on UACC-257 melanoma was 30.4 µM; in the assay with MALME-3M melanoma it was 52.3 µM; with RXF 393 renal, 28 µM; with OVCAR-4 ovarian, 40.2 µM; with M14 melanoma, 41.9 µM; in the assay on CCRF-CEM leukemia, 73.7 µM. The TGI with NCI-H23 lung worked out at 34 µM; with SW-620 colon, 57.2 µM; with NCI-H226 lung, 54.3 µM.
For `NC(=O)c1csc(C2CCC(CO)O2)n1` (stereo not drawn), the TGI in the assay with UACC-257 melanoma, in the assay with MALME-3M melanoma, with OVCAR-4 ovarian, in the assay with M14 melanoma, in the assay on CCRF-CEM leukemia and in the assay on NCI-H23 lung was above 100 µM in each case. Moreover, the TGI in the assay with NCI-H522 lung, in the assay with SW-620 colon and in the assay with NCI-H226 lung was above 100 µM throughout.
As to `CCOC(=O)c1c2c(n(Cc3ccccc3)c1C)-c1nc(Cc3ccccc3)[nH]c1C(=O)C2=O`, the GI50 with UACC-257 melanoma is 2.82 µM; with MALME-3M melanoma, 1.61 µM; in the assay with RXF 393 renal, 0.87 µM; in the assay with OVCAR-4 ovarian, 1.03 µM; in the assay on M14 melanoma it was 1.75 µM; in the assay on CCRF-CEM leukemia, 0.962 µM. Further, the GI50 in the assay with NCI-H23 lung was 1.82 µM; in the assay with SW-620 colon, 1.84 µM; in the assay on NCI-H226 lung it was 1.67 µM. The TGI in the assay on UACC-257 melanoma is 8.71 µM; in the assay on MALME-3M melanoma, 3.26 µM; with RXF 393 renal, 2.34 µM; in the assay with OVCAR-4 ovarian, 2.76 µM; with M14 melanoma, 3.49 µM; in the assay with CCRF-CEM leukemia, 2.97 µM. The results for the TGI with NCI-H23 lung, in the assay on SW-620 colon and in the assay with NCI-H226 lung were 3.59 µM, 3.28 µM and 4.39 µM, respectively.
